Results on 6 compounds are retold here after publication PMC11434739, “CAVPENET Peptide Inhibits Prostate Cancer Cells Proliferation and Migration through PP1γ-Dependent Inhibition of AKT Signaling” (Pharmaceutics, 2024).

The conditions of data set [1]: phase II clinical trial; cited from earlier work. The source says:
Despite the apparent anticancer role of CPT1, by reducing the availability of fatty acids, excess CPT1 seems to support PCa cell proliferation by an ROS-mediated stress phenotype. Moreover, a CPT1 knockout was associated with inhibition of PCa cell invasion, becoming an important therapeutic target for PCa. In this context, different compounds have been produced to target this protein [52]. […] Alternatively, ...

A further data set deals with cancer cells. The conditions noted are these: cited from earlier work; for cancer cell apoptosis: cancer cells. How it is done: Targeting protein phosphorylation has long been explored as a strategy for cancer treatment. For instance, several kinase inhibitors have been approved by the FDA as anticancer therapies. In the context of phosphatases, targeting the PP1 active site was one of the earliest proposed approaches for anticancer therapeutic development. The potential therapeutic effect of PP1 inhibitors tautomycin and calyculin A was evaluated in cancer cells.

The next data set deals with PC-3 cells. In words: Microscopic evaluation of cellular uptake (live-cell imaging). In kind it is cell-based, Human. The conditions noted are these: TAMRA-labeled bioportide 5 µM, 1 h, 37 °C, 5% CO2, phenol red-free RPMI-1640, live-cell fluorescence imaging (EVOS M5000), 3 independent experiments. How it is done: (§1) To evaluate the intracellular accumulation of bioportides, PC-3 and LnCaP cells were seeded in a 24-well plate (6.00 × 10^4 and 7.50 × 10^4 cells/well, respectively) and incubated for 24 h at 37 °C under a 5% CO2 atmosphere. After washing cells with phosphate buffered saline (PBS-1×), the growth medium was exchanged for phenol red-free RPMI-1640 medium containing 5µM of TAMRA-labeled CAVPENET or CAVPENET control and incubated for 1 h. After the incubation time, the cells were washed in phenol red-free RPMI-1640 medium and observed by EVOS^TM M5000 Imaging, and photos were obtained. Live-cell imaging was used to avoid fixation artifacts. Untreated cells were included as background reading.
(§2) Figure 1 Translocation of CAVPENET control and CAVPENET bioportides into (A) PC-3 and (B) LnCaP cells. PCa cells (PC-3 and LnCaP) were incubated with TAMRA-labeled bioportides (5 µM) for 1 h at 37 °C and 5% CO2 atmosphere. Representative images from 3 independent experiments are represented. DIC: differential interference contrast. Scale bar: 150 μm.

Another data set relates to LnCaP cells. The description is as above. In kind it is cell-based, Human. The conditions noted are these: TAMRA-labeled bioportide 5 µM, 1 h, 37 °C, 5% CO2, phenol red-free RPMI-1640, live-cell fluorescence imaging (EVOS M5000), 3 independent experiments. The procedure: as §1, §2
Data set [2] deals with several types of cells, including different tumor cell lines. The conditions noted are these: cited from earlier work.

Where a SMILES comes first, the peptide text is derived from it.

Turning to `CCOC(=O)[C@@]1(CCCCCCOc2ccc(Cl)cc2)CO1` [Etomoxir], the hepatotoxicity entry in data set [1] is reported as “hepatotoxicity hampered definitive testing”.

Regarding `CO[C@H]([C@H](O)CC(=O)[C@@H](C)[C@@H](O)CC[C@@H](C)[C@@H]1O[C@]2(CC[C@@H](C)[C@H](CC[C@H](C)C(C)=O)O2)CC[C@@H]1C)[C@H](OC(=O)C[C@@H](O)C1=C(C)C(=O)OC1=O)C(C)C` [tautomycin], in the data set on cancer cells, the cancer cell apoptosis result is reported as “effectiveness in causing cancer cell apoptosis” and the toxic effects result is on record as “significant toxic effects”.

Regarding `CC[C@H](C)[C@H](NC(=O)[C@H](Cc1ccccc1)NC(=O)[C@H](CC(=O)O)NC(=O)[C@@H](NC(=O)[C@@H](N)C(C)C)C(C)C)C(=O)N[C@@H](CCCCN)C(=O)N[C@@H](CCC(=O)O)C(=O)N[C@@H](CC(=O)O)C(=O)N[C@@H](CCCNC(=N)N)C(=O)N[C@@H](CCC(N)=O)C(=O)N[C@H](C(=O)N[C@@H](CCCCN)C(=O)N[C@H](C(=O)N[C@@H](Cc1c[nH]c2ccccc12)C(=O)N[C@@H](Cc1ccccc1)C(=O)N[C@@H](CCC(N)=O)C(=O)N[C@@H](CC(N)=O)C(=O)N[C@@H](CCCNC(=N)N)C(=O)N[C@@H](CCCNC(=N)N)C(=O)N[C@@H](CCSC)C(=O)N[C@@H](CCCCN)C(=O)N[C@@H](Cc1c[nH]c2ccccc12)C(=O)N[C@@H](CCCCN)C(=O)N[C@@H](CCCCN)C(N)=O)[C@@H](C)CC)[C@@H](C)CC` [CAVPENET control] (H-VVDFIKEDRQIKIWFQNRRMKWKK-NH2), the cellular internalization result in the data set with PC-3 cells and in the data set on LnCaP cells was “demonstrated cellular internalization” each time.

`COC[C@@H]([C@H](O)[C@H](O)C(=O)NCC[C@H](C)c1nc(/C=C/C[C@@H]2O[C@]3(C[C@@H](O)[C@@H]2C)O[C@H]([C@H](C[C@H](O)[C@H](C)[C@H](O)[C@H](C)/C=C(C)/C(C)=C/C=C/C(C)=C\C#N)OC)[C@H](OP(=O)(O)O)C3(C)C)co1)N(C)C` [calyculin A]: in the data set on cancer cells, the cancer cell apoptosis entry was “effectiveness in causing cancer cell apoptosis” and the toxic effects result is on record as “significant toxic effects”.

`CC[C@H](C)[C@H](NC(=O)[C@H](CCCCN)NC(=O)[C@@H](NC(=O)[C@@H](N)C(C)C)C(C)C)C(=O)N[C@@H](CC(=O)O)C(=O)N[C@@H](Cc1ccccc1)C(=O)N[C@@H](CCC(=O)O)C(=O)N[C@@H](CC(=O)O)C(=O)N[C@@H](CCCNC(=N)N)C(=O)N[C@@H](CCC(N)=O)C(=O)N[C@H](C(=O)N[C@@H](CCCCN)C(=O)N[C@H](C(=O)N[C@@H](Cc1c[nH]c2ccccc12)C(=O)N[C@@H](Cc1ccccc1)C(=O)N[C@@H](CCC(N)=O)C(=O)N[C@@H](CC(N)=O)C(=O)N[C@@H](CCCNC(=N)N)C(=O)N[C@@H](CCCNC(=N)N)C(=O)N[C@@H](CCSC)C(=O)N[C@@H](CCCCN)C(=O)N[C@@H](Cc1c[nH]c2ccccc12)C(=O)N[C@@H](CCCCN)C(=O)N[C@@H](CCCCN)C(N)=O)[C@@H](C)CC)[C@@H](C)CC` [CAVPENET] (H-VVKIDFEDRQIKIWFQNRRMKWKK-NH2): the cellular internalization result in the data set with PC-3 cells and in the data set with LnCaP cells was “demonstrated cellular internalization” throughout.

With RQIKIWFQNRRMKWKK [Penetratin], the “toxic effects in cells” value in data set [2] is “absence of toxic effects”.
